Reference: US8580762B2, “Substituted purine and 7-deazapurine compounds” (Epizyme, Inc., priority 2010, dated 2013)

What follows are molecules tested against DOT1L(1-416) (Homo sapiens, UniProt Q8TEK3) (assay: Determination of IC50: DOT1L(1-416) methyltransferase assay, 3H-SAM, oligonucleosome substrate, Flashplate). Details: class symbols; read-out: DOT1L IC50.
Sequence of DOT1L(1-416) (Q8TEK3 1-416): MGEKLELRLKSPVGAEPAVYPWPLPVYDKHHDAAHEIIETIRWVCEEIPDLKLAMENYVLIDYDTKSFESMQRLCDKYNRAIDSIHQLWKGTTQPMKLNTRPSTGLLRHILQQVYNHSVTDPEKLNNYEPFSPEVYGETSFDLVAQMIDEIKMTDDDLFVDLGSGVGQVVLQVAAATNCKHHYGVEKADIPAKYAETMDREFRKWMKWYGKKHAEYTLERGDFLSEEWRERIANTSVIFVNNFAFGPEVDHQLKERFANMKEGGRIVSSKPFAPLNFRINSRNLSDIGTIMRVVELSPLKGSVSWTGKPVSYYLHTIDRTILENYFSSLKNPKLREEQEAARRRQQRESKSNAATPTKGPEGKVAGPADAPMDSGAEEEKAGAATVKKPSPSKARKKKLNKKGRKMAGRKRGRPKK
Assay type: biochemical
Experimental: Determination of IC50. Test compounds were serially diluted 3 fold in DMSO for 10 points and 1 μl was plated in a 384 well microtiter plate. […] 10 μl per well of substrate mix (same assay buffer with 200 nM S-[methyl-^3H]-adenosyl-L methionine, 600 nM of unlabeled […], and 20 nM oligonueleosome) was added to initiate the reaction. Reaction was incubated for 120 minutes at room temperature and quenched with 10 μl per well of 100 μM S-methyl-adenosyl-L methionine. For detection, substrate from 50 μl of reaction was immobilized on a 384 well Streptavidin coated Flashplate (Perkin Elmer) (also coated with 0.2% polyethyleneimine) and read on a Top Count scintillation counter (Perkin Elmer).
For `CN(C[C@H]1C[C@@H](n2ccc3c(N)ncnc32)[C@H](O)[C@@H]1O)[C@H]1C[C@@H](CCc2nc3cc(Br)ccc3[nH]2)C1` [Compound 47, (1R,2S,3R,5R)-3-(4-amino-7H-pyrrolo[2,3-d]pyrimidin-7-yl)-5-((((1r,38)-3-(2-(5-bromo-1H-benzo[d]imidazol-2-yl)ethyl)cyclobutyl)(methyl)amino)methyl)cyclopentane-1,2-diol], the IC50 was < 100 nM. With `CC(C)CN(C[C@H]1C[C@@H](n2ccc3c(N)ncnc32)[C@H](O)[C@@H]1O)[C@H]1C[C@H](CCc2nc3cc(C(C)(C)C)ccc3[nH]2)C1` [Compound 48, (1R,2S,3R,5R)-3-(4-amino-7H-pyrrolo[2,3-d]pyrimidin-7-yl)-5-((((1s,3R)-3-(2-(5-(tert-butyl)-1H-benzo[d]imidazol-2-yl)ethyl)cyclobutyl)(isobutyl)amino)methyl)cyclopentane-1,2-diol] the IC50 was < 100 nM. `CCN(C[C@H]1C[C@@H](n2ccc3c(N)ncnc32)[C@H](O)[C@@H]1O)[C@H]1C[C@H](CCc2nc3cc(C(C)(C)C)ccc3[nH]2)C1` [Compound 49, (1R,2S,3R,5R)-3-(4-amino-7H-pyrrolo[2,3-d]pyrimidin-7-yl)-5-((((1s,3R)-3-(2-(5-(tert-butyl)-1H-benzo[d]imidazol-2-yl)ethyl)cyclobutyl)(ethyl)amino)methyl)cyclopentane-1,2-diol] was tested, and the IC50 was < 100 nM. In the case of `CC(C)N(C[C@H]1C[C@@H](n2cnc3c(N)ncnc32)[C@H](O)[C@@H]1O)C1CC(CCc2nc3cc(C(C)(C)C)ccc3[nH]2)C1` (stereo partly drawn) [Compound 50, (1R,2S,3R,5R)-3-(6-amino-9H-purin-9-yl)-5-(((3-(2-(5-(tert-butyl)-1H-benzo[d]imidazol-2-yl)ethyl)cyclobutyl)(isopropyl)amino)methyl)cyclopentane-1,2-diol], the IC50 is reported as < 100 nM. In the case of `CC(C)(C)c1ccc2[nH]c(CC[C@H]3C[C@H](N(C[C@H]4C[C@@H](n5ccc6c(N)ncnc65)[C@H](O)[C@@H]4O)C4CCC4)C3)nc2c1` [Compound 51, (1R,2S,3R,5R)-3-(4-amino-7H-pyrrolo[2,3-d]pyrimidin-7-yl)-5-((((1s,3R)-3-(2-(5-(tert-butyl)-1H-benzo[d]imidazol-2-yl)ethyl)cyclobutyl)(cyclobutyl)amino)methyl)cyclopentane-1,2-diol], the IC50 is reported as < 100 nM. `CN(C[C@H]1C[C@@H](n2ccc3c(N)ncnc32)[C@H](O)[C@@H]1O)[C@H]1C[C@@H](CCc2nc3cc(Cl)c(Cl)cc3[nH]2)C1` [Compound 52, (1R,2S,3R,5R)-3-(4-amino-7H-pyrrolo[2,3-d]pyrimidin-7-yl)-5-((((1r,3S)-3-(2-(5,6-dichloro-1H-benzo[d]imidazol-2-yl)ethyl)cyclobutyl)(methyl)amino)methyl)cyclopentane-1,2-diol] was tested, and the IC50 was < 100 nM. In the case of `CC(C)CN(C[C@H]1C[C@@H](n2ccc3c(N)ncnc32)[C@H](O)[C@@H]1O)[C@H]1C[C@@H](CCc2nc3cc(C(C)(C)C)ccc3[nH]2)C1` [Compound 53, (1R,2S,3R,5R)-3-(4-amino-7H-pyrrolo[2,3-d]pyrimidin-7-yl)-5-((((1r,3S)-3-(2-(5-(tert-butyl)-1H-benzo[d]imidazol-2-yl)ethyl)cyclobutyl)(isobutyl)amino)methyl)cyclopentane-1,2-diol], the IC50 is reported as < 100 nM. With `CC(C)(C)c1ccc2[nH]c(CC[C@H]3C[C@H](N(CC4CC4)C[C@H]4C[C@@H](n5ccc6c(N)ncnc65)[C@H](O)[C@@H]4O)C3)nc2c1` [Compound 54, (1R,2S,3R,5R)-3-(4-amino-7H-pyrrolo[2,3-d]pyrimidin-7-yl)-5-((((1s,3R)-3-(2-(5-(tert-butyl)-1H-benzo[d]imidazol-2-yl)ethyl)cyclobutyl)(cyclopropylmethyl)amino)methyl)cyclopentane-1,2-diol] the IC50 was < 100 nM. With `CN(C[C@H]1C[C@@H](n2ccc3c(N)ncnc32)[C@H](O)[C@@H]1O)[C@H]1C[C@H](CCc2nc3cc(Br)ccc3[nH]2)C1` [Compound 55, (1R,2S,3R,5R)-3-(4-amino-7H-pyrrolo[2,3-d]pyrimidin-7-yl)-5-((((1s,3R)-3-(2-(5-bromo-1H-benzo[d]imidazol-2-yl)ethyl)cyclobutyl)(methyl)amino)methyl)cyclopentane-1,2-diol] the IC50 was < 100 nM. For `CC(C)N(C[C@H]1C[C@@H](n2ccc3c(N)ncnc32)[C@H](O)[C@@H]1O)C1CC(CCc2nc3cc(OC(F)(F)F)ccc3[nH]2)C1` (stereo partly drawn) [Compound 56, (1R,2S,3R,5R)-3-(4-amino-7H-pyrrolo[2,3-d]pyrimidin-7-yl)-5-((isopropyl(3-(2-(5-(trifluoromethoxy)-1H-benzo[d]imidazol-2-yl)ethyl)cyclobutyl)amino)methyl)cyclopentane-1,2-diol], the IC50 was < 100 nM. In the case of `CN(C[C@H]1C[C@@H](n2ccc3c(N)ncnc32)[C@H](O)[C@@H]1O)[C@H]1C[C@H](CCc2nc3cc(OC(F)(F)F)ccc3[nH]2)C1` [Compound 57, (1R,2S,3R,5R)-3-(4-amino-7H-pyrrolo[2,3-d]pyrimidin-7-yl)-5-((methyl((1s,3R)-3-(2-(5-(trifluoromethoxy)-1H-benzo[d]imidazol-2-yl)ethyl)cyclobutyl)amino)methyl)cyclopentane-1,2-diol], the IC50 is reported as < 100 nM. In the case of `CN(C[C@H]1C[C@@H](n2ccc3c(N)ncnc32)[C@H](O)[C@@H]1O)[C@H]1C[C@H](CCc2nc3cc(Cl)c(Cl)cc3[nH]2)C1` [Compound 58, (1R,2S,3R,5R)-3-(4-amino-7H-pyrrolo[2,3-d]pyrimidin-7-yl)-5-((((1s,3R)-3-(2-(5,6-dichloro-1H-benzo[d]imidazol-2-yl)ethyl)cyclobutyl)(methyl)amino)methyl)cyclopentane-1,2-diol], the IC50 is reported as < 100 nM. For `CC(C)(C)c1ccc2[nH]c(CC[C@H]3C[C@H](N(CC4CCC4)C[C@H]4C[C@@H](n5ccc6c(N)ncnc65)[C@H](O)[C@@H]4O)C3)nc2c1` [Compound 59, (1R,2S,3R,5R)-3-(4-amino-7H-pyrrolo[2,3-d]pyrimidin-7-yl)-5-((((1s,3R)-3-(2-(5-(tert-butyl)-1H-benzo[d]imidazol-2-yl)ethyl)cyclobutyl)(cyclobutylmethyl)amino)methyl)cyclopentane-1,2-diol], the IC50 was < 100 nM. For `CC(C)N(C[C@H]1C[C@@H](n2ccc3c(N)ncnc32)[C@H](O)[C@@H]1O)[C@H]1C[C@@H](CCc2nc3cc(OC(F)(F)F)ccc3[nH]2)C1` [Compound 60, (1R,2S,3R,5R)-3-(4-amino-7H-pyrrolo[2,3-d]pyrimidin-7-yl)-5-((isopropyl((1r,3S)-3-(2-(5-(trifluoromethoxy)-1H-benzo[d]imidazol-2-yl)ethyl)cyclobutyl)amino)methyl)cyclopentane-1,2-diol], the IC50 was < 100 nM. Work on `CC(C)N(C[C@H]1C[C@@H](n2ccc3c(N)ncnc32)[C@H](O)[C@@H]1O)[C@H]1C[C@H](CCc2nc3cc(OC(F)(F)F)ccc3[nH]2)C1` [Compound 61, (1R,2S,3R,5R)-3-(4-amino-7H-pyrrolo[2,3-d]pyrimidin-7-yl)-5-((isopropyl((1s,3R)-3-(2-(5-(trifluoromethoxy)-1H-benzo[d]imidazol-2-yl)ethyl)cyclobutyl)amino)methyl)cyclopentane-1,2-diol] yielded an IC50 of 100 to 1000 nM. Work on `CN(C[C@H]1C[C@@H](n2ccc3c(N)ncnc32)[C@H](O)[C@@H]1O)C1CC(CCc2nc3cc(C4COC4)ccc3[nH]2)C1` (stereo partly drawn) [Compound 62, (1R,2S,3R,5R)-3-(4-amino-7H-pyrrolo[2,3-d]pyrimidin-7-yl)-5-((methyl(3-(2-(5-(oxetan-3-yl)-1H-benzo[d]imidazol-2-yl)ethyl)cyclobutyl)amino)methyl)cyclopentane-1,2-diol] yielded an IC50 of 100 to 1000 nM. Work on `CN(C[C@H]1O[C@@H](n2cnc3c(N)ncnc32)[C@H](O)[C@@H]1O)[C@H]1C[C@@H](CCc2nc3cc(C4COC4)ccc3[nH]2)C1` [Compound 63] yielded an IC50 of 100 to 1000 nM. `CN(C[C@H]1O[C@@H](n2cnc3c(N)ncnc32)[C@H](O)[C@@H]1O)C1CC(CCc2nc3cc(C4COC4)ccc3[nH]2)C1` (stereo partly drawn) [Compound 64, (2R,3R,4S,5R)-2-(6-amino-9H-purin-9-yl)-5-((methyl(3-(2-(5-(oxetan-3-yl)-1H-benzo[d]imidazol-2-yl)ethyl)cyclobutyl)amino)methyl)tetrahydrofuran-3,4-diol] was tested, and the IC50 was 100 to 1000 nM. `CN(C[C@H]1O[C@@H](n2cnc3c(N)ncnc32)[C@H](O)[C@@H]1O)[C@H]1C[C@H](CCc2nc3cc(C4COC4)ccc3[nH]2)C1` [Compound 65, (2R,3R,4S,5R)-2-(6-amino-9H-purin-9-yl)-5-((methyl((1s,3R)-3-(2-(5-(oxetan-3-yl)-1H-benzo[d]imidazol-2-yl)ethyl)cyclobutyl)amino)methyl)tetrahydrofuran-3,4-diol] was tested, and the IC50 was 100 to 1000 nM. For `CC(C)(C)c1ccc2[nH]c(CCC3CC(N(C[C@H]4C[C@@H](n5ccc6c(N)ncnc65)[C@H](O)[C@@H]4O)CC(F)(F)F)C3)nc2c1` (stereo partly drawn) [Compound 66, (1R,2S,3R,5R)-3-(4-amino-7H-pyrrolo[2,3-d]pyrimidin-7-yl)-5-(((3-(2-(5-(tert-butyl)-1H-benzo[d]imidazol-2-yl)ethyl)cyclobutyl) (2,2,2-trifluoroethyl)amino)methyl)cyclopentane-1,2-diol], the IC50 was 100 to 1000 nM. For `CC(C)N(C[C@H]1O[C@@H](n2cnc3c(N)ncnc32)[C@H](O)[C@@H]1O)C1CC(CCc2nc3cc(C4CCC4)ccc3[nH]2)C1` (stereo partly drawn) [Compound 67, (2R,3R,4S,5R)-2-(6-amino-9H-purin-9-yl)-5-[({3-[2-(5-cyclobutyl-1H-1,3-benzodiazol-2-yl)ethyl]cyclobutyl}(propan-2-yl)amino)methyl]oxolane-3,4-diol], the IC50 was < 100 nM. In the case of `CN(C[C@H]1O[C@@H](n2cnc3c(N)ncnc32)[C@H](O)[C@@H]1O)[C@H]1C[C@@H](CCc2nc3cc(C(C)(C)C)ccc3[nH]2)C1` [Compound 71, (2R,3R,4S,512)-2-(6-amino-9H-purin-9-yl)-5-((((1r,3S)-3-(2-(5-(tert-butyl)-1H-benzo[d]imidazol-2-yl)ethyl)cyclobutyl)(methyl)amino)methyl)tetrahydrofuran-3,4-diol], the IC50 is reported as < 100 nM.
